According to US20240132521A1, “COMPOUNDS AND METHODS FOR MODULATING HER2” (Iambic Therapeutics, Inc., priority 2022, published 2024):

How the values were obtained:
Assay type in all cases: cell-based
BaF3_EGFRWT cells = BaF3_EGFRWT cells (Homo sapiens, UniProt P00533); assay: Cell growth inhibition assay (CellTiterGlo), BaF3_EGFRWT; conditions: 3-day treatment, CellTiterGlo, read-out: Cell growth inhibition activity, EGFR WT
BaF3_HER2YVMA cells = BaF3_HER2YVMA cells (Homo sapiens, UniProt P04626, DUP772-775, cells depend on it); assay: Cell growth inhibition assay (CellTiterGlo), BaF3_HER2YVMA; conditions: 3-day treatment, CellTiterGlo, read-out: Cell growth inhibition activity, HER2 - YVMA
BaF3_HER2WT cells = BaF3_HER2WT cells (Homo sapiens, UniProt P04626); assay: Cell growth inhibition assay (CellTiterGlo), BaF3_HER2WT; conditions: 3-day treatment, CellTiterGlo, read-out: Cell growth inhibition activity, HER2 WT
BaF3_HER2WT cells, sequence (P04626 whole entry, change not shown): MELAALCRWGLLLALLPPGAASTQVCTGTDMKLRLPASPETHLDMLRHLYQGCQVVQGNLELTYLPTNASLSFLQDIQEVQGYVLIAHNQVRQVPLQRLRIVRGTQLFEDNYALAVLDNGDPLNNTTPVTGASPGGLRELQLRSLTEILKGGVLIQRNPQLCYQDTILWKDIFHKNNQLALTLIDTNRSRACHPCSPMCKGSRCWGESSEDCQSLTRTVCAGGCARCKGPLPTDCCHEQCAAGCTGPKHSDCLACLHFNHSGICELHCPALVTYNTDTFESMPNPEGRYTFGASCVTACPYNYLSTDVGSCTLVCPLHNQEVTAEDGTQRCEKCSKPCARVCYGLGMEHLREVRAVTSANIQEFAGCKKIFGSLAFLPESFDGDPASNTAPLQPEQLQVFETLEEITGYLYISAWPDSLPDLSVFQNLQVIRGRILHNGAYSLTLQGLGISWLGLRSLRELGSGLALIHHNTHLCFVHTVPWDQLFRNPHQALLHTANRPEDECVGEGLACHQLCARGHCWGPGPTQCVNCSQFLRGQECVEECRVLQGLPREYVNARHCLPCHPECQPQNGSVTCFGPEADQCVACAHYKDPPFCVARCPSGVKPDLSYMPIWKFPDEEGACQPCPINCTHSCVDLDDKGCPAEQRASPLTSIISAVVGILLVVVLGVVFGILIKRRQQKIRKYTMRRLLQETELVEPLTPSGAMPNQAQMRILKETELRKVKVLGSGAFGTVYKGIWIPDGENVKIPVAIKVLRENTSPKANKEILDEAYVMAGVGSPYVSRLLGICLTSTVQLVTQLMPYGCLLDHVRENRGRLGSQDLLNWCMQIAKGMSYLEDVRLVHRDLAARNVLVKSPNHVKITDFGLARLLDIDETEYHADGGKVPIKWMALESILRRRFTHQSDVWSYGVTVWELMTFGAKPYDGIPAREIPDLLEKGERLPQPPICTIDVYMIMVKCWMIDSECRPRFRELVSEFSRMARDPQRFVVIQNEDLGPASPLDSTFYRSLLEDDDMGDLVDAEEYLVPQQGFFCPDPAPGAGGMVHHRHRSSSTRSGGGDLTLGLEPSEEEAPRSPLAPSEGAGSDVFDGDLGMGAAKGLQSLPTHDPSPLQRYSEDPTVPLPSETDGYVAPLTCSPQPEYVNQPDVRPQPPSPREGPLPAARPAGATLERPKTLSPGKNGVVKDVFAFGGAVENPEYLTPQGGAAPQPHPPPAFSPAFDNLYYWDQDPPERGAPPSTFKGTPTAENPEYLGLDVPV

BaF3_HER2YVMA cells, sequence (P04626 with tags, fused parts or gaps DUP772-775): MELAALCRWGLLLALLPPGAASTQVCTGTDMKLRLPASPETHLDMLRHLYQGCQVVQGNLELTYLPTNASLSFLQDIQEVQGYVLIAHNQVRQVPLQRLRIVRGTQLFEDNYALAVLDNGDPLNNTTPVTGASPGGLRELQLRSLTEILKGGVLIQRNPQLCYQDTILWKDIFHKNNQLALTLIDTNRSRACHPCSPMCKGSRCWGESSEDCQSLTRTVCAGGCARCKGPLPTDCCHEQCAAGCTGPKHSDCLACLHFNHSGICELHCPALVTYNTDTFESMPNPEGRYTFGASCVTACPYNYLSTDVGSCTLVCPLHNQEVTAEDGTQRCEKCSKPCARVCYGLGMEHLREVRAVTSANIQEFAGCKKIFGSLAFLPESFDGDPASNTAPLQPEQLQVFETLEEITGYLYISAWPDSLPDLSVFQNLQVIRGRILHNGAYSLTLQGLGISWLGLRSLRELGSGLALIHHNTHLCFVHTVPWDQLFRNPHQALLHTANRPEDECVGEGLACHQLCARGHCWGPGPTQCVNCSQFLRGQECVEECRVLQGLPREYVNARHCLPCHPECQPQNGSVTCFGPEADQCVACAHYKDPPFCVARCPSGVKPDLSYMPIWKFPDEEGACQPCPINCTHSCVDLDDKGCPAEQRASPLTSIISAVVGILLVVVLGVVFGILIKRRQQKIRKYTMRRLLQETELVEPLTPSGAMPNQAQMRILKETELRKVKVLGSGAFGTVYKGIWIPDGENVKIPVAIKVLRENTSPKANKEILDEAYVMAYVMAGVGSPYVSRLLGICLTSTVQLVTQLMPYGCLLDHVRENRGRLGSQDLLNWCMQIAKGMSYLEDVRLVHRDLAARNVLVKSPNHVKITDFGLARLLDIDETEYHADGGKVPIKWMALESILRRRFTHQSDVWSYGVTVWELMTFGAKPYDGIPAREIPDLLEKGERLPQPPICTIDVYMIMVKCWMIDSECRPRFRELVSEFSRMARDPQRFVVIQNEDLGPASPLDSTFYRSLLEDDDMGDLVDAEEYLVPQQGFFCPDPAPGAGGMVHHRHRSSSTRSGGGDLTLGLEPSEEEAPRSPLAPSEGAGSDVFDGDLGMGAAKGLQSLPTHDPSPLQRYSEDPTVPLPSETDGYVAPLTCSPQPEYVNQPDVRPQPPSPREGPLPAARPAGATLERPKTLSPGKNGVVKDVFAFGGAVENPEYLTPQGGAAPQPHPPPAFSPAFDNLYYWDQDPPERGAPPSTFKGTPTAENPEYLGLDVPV
BaF3_EGFRWT cells, sequence (P00533 whole entry, change not shown): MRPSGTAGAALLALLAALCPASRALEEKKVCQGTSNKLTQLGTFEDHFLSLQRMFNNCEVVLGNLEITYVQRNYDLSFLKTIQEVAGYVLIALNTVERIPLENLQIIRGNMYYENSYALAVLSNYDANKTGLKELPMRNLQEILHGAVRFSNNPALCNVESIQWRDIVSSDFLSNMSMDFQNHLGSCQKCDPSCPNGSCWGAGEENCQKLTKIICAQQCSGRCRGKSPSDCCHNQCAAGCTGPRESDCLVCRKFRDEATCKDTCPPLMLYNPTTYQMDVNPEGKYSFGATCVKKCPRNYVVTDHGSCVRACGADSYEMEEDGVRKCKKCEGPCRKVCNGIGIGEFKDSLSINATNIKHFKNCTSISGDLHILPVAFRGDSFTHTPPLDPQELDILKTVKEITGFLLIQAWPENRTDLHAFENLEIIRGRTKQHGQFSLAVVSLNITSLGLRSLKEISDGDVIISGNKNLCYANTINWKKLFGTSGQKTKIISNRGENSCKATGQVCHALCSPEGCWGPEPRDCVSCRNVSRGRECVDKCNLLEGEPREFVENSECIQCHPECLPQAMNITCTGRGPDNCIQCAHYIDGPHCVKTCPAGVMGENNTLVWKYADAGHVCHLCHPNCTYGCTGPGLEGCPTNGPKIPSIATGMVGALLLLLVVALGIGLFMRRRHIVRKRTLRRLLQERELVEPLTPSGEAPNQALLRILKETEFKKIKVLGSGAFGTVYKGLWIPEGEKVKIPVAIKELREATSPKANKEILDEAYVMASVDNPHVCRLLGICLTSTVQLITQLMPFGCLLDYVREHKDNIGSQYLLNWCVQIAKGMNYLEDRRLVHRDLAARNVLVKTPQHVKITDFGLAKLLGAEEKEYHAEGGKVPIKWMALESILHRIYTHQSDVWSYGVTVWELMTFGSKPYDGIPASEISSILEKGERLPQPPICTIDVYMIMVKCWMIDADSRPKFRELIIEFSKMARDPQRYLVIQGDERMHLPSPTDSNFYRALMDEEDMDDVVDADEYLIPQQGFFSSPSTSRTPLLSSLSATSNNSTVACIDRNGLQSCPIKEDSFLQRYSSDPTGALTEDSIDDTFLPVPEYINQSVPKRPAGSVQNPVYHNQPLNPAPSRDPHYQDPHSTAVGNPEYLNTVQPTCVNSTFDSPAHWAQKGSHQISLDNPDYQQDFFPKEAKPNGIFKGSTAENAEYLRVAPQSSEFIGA

SMILES | GI50 (BaF3_EGFRWT cells) [µM] | GI50 (BaF3_HER2YVMA cells) [µM] | GI50 (BaF3_HER2WT cells) [µM]
Cc1cc(Nc2ncnn3ccc(N4CCC(N(C)C(=O)/C=C/CN(C)C)CC4)c23)ccc1Oc1ccn2ncnc2c1 [Example 73, (E)-N-(1-(4-((4-([1,2,4]triazolo[1,5-a]pyridin-7-yloxy)-3-methylphenyl)amino)pyrrolo[2,1-f][1,2,4]triazin-5-yl)piperidin-4-yl)-4-(dimethylamino)-N-methylbut-2-enamide] | 1.5 to 5 | 0.5 to 1.5 | < 0.2
C=CC(=O)N(C)C1CCN(c2ccn3ncnc(Nc4ccc(Oc5ccn6ncnc6c5)c(C)c4)c23)CC1 [Example 74, N-(1-(4-((4-([1,2,4]triazolo[1,5-a]pyridin-7-yloxy)-3-methylphenyl)amino)pyrrolo[2,1-f][1,2,4]triazin-5-yl)piperidin-4-yl)-N-methylacrylamide] | 1.5 to 5 | 0.5 to 1.5 | < 0.2
C=CC(=O)N1CCN(c2ccn3ncnc(Nc4ccc(Oc5ccn6ncnc6c5)c(C)c4)c23)CC12CC2 [Example 75, 1-(7-(4-((4-([1,2,4]triazolo[1,5-a]pyridin-7-yloxy)-3-methylphenyl)amino)pyrrolo[2,1-f][1,2,4]triazin-5-yl)-4,7-diazaspiro[2.5]octan-4-yl)prop-2-en-1-one] | 0.5 to 1.5 | < 0.2 | < 0.2
C=CC(=O)NC1CCCN(c2ccn3ncnc(Nc4ccc(Oc5ccn6ncnc6c5)c(C)c4)c23)C1 (stereo not drawn) [Example 76, N-(1-(4-((4-([1,2,4]triazolo[1,5-a]pyridin-7-yloxy)-3-methylphenyl)amino)pyrrolo[2,1-f][1,2,4]triazin-5-yl)piperidin-3-yl)acrylamide] | 1.5 to 5 | 0.5 to 1.5 | < 0.2
C=CC(=O)N1CC(N(C)c2ccn3ncnc(Nc4ccc(Oc5ccn6ncnc6c5)c(C)c4)c23)C1 [Example 77, 1-(3-((4-((4-([1,2,4]triazolo[1,5-a]pyridin-7-yloxy)-3-methylphenyl)amino)pyrrolo[2,1-f][1,2,4]triazin-5-yl)(methyl)amino)azetidin-1-yl)prop-2-en-1-one] | 1.5 to 5 | 1.5 to 5 | 0.2 to 0.5
C=CC(=O)NC1CCN(c2ccn3ncnc(Nc4ccc(Oc5ccn6ncnc6c5)c(C)c4)c23)CC1 [Example 78, N-(1-(4-((4-([1,2,4]triazolo[1,5-a]pyridin-7-yloxy)-3-methylphenyl)amino)pyrrolo[2,1-f][1,2,4]triazin-5-yl)piperidin-4-yl)acrylamide] | 1.5 to 5 | 0.2 to 0.5 | < 0.2
C=CC(=O)NC1CCN(c2ccn3ncnc(Nc4ccc(Oc5ccn6ncnc6c5)c(C)c4)c23)C1 (stereo not drawn) [Example 79, N-(1-(4-((4-([1,2,4]triazolo[1,5-a]pyridin-7-yloxy)-3-methylphenyl)amino)pyrrolo[2,1-f][1,2,4]triazin-5-yl)pyrrolidin-3-yl)acrylamide] | 1.5 to 5 | 0.2 to 0.5 | < 0.2
Cc1cc(Nc2ncnn3ccc(N4CCCN(C(=O)/C=C/CN5CCOCC5)CC4)c23)ccc1Oc1ccn2ncnc2c1 [Example 80, (E)-1-(4-(4-((4-([1,2,4]triazolo[1,5-a]pyridin-7-yloxy)-3-methylphenyl)amino)pyrrolo[2,1-f][1,2,4]triazin-5-yl)-1,4-diazepan-1-yl)-4-morpholinobut-2-en-1-one] | 1.5 to 5 | 1.5 to 5 | < 0.2
Cc1cc(Nc2ncnn3ccc(N4CC(NC(=O)/C=C/CN5CCOCC5)C4)c23)ccc1Oc1ccn2ncnc2c1 [Example 81, (E)-N-(1-(4-((4-([1,2,4]triazolo[1,5-a]pyridin-7-yloxy)-3-methylphenyl)amino)pyrrolo[2,1-f][1,2,4]triazin-5-yl)azetidin-3-yl)-4-morpholinobut-2-enamide] | 1.5 to 5 | 1.5 to 5 | 0.2 to 0.5
Cc1cc(Nc2ncnn3ccc(C4CN(C(=O)/C=C/CN5CCC(F)(F)C5)C4)c23)ccc1Oc1ccn2ncnc2c1 [Example 84, (E)-1-(3-(4-((4-([1,2,4]triazolo[1,5-a]pyridin-7-yloxy)-3-methylphenyl)amino)pyrrolo[2,1-f][1,2,4]triazin-5-yl)azetidin-1-yl)-4-(3,3-difluoropyrrolidin-1-yl)but-2-en-1-one] | 1.5 to 5 | 0.2 to 0.5 | < 0.2
Cc1cc(Nc2ncnn3ccc(C4CN(C(=O)/C=C/CN5CCC(F)(F)CC5)C4)c23)ccc1Oc1ccn2ncnc2c1 [Example 85, (E)-1-(3-(4-((4-([1,2,4]triazolo[1,5-a]pyridin-7-yloxy)-3-methylphenyl)amino)pyrrolo[2,1-f][1,2,4]triazin-5-yl)azetidin-1-yl)-4-(4,4-difluoropiperidin-1-yl)but-2-en-1-one] | 1.5 to 5 | < 0.2 | < 0.2
Cc1cc(Nc2ncnn3ccc(C4CN(C(=O)/C(C#N)=C/C(C)(C)C)C4)c23)ccc1Oc1ccn2ncnc2c1 [Example 89, (E)-2-(3-(4-((4-([1,2,4]triazolo[1,5-a]pyridin-7-yloxy)-3-methylphenyl)amino)pyrolo[2,1-f][1,2,4]triazin-5-yl)azetidine-1-carbonyl)-4,4-dimethylpent-2-enenitrile] | 1.5 to 5 | 1.5 to 5 | 1.5 to 5
Cc1cc(Nc2ncnn3ccc(C4CN(C(=O)/C(F)=C/C5CCCN5C)C4)c23)ccc1Oc1ccn2ncnc2c1 (stereo not drawn) [Example 92, (Z)-1-(3-(4-((4-([1,2,4]triazolo[1,5-a]pyridin-7-yloxy)-3-methylphenyl)amino)pyrrolo[2,1-f][1,2,4]triazin-5-yl)azetidin-1-yl)-2-fluoro-3-(1-methylpyrrolidin-2-yl)prop-2-en-1-one] | 1.5 to 5 | < 0.2 | < 0.2
COC1CN(C/C=C/C(=O)N2CCC(c3ccn4ncnc(Nc5ccc(Oc6ccn7ncnc7c6)c(C)c5)c34)CC2)C1 [Example 117, (E)-1-(4-(4-((4-([1,2,4]triazolo[1,5-a]217midazol-7-yloxy)-3-methylphenyl)amino)pyrrolo[2,1-f][1,2,4]triazin-5-yl)piperidin-1-yl)-4-(3-methoxyazetidin-1-yl)but-2-en-1-one] | 1.5 to 5 | < 0.2 | < 0.2
COC1CCN(C/C=C/C(=O)N2CCC(c3ccn4ncnc(Nc5ccc(Oc6ccn7ncnc7c6)c(C)c5)c34)CC2)C1 (stereo not drawn) [Example 118, E-1-(4-(4-((4-([1,2,4]triazolo[1,5-a]217midazol-7-yloxy)-3-methylphenyl)amino)pyrrolo[2,1-f][1,2,4]triazin-5-yl)piperidin-1-yl)-4-(3-methoxypyrrolidin-1-yl)but-2-en-1-one] | 1.5 to 5 | < 0.2 | < 0.2
Cc1cc(Nc2ncnn3ccc(C4CCN(C(=O)/C=C/CN5CC6COCC6C5)CC4)c23)ccc1Oc1ccn2ncnc2c1 (stereo not drawn) [Example 119, E-1-(4-(4-((4-([1,2,4]triazolo[1,5-a]218midazol-7-yloxy)-3-methylphenyl)amino)pyrrolo[2,1-f][1,2,4]triazin-5-yl)piperidin-1-yl)-4-(tetrahydro-1H-furo[3,4-c]pyrrol-5(3H)-yl)but-2-en-1-one] | 1.5 to 5 | < 0.2 | < 0.2
Cc1cc(Nc2ncnn3ccc(C4CCN(C(=O)/C=C/CN5CCC6(COC6)C5)CC4)c23)ccc1Oc1ccn2ncnc2c1 [Example 120, E-1-(4-(4-((4-([1,2,4]triazolo[1,5-a]218midazol-7-yloxy)-3-methylphenyl)amino)pyrrolo[2,1-f][1,2,4]triazin-5-yl)piperidin-1-yl)-4-(2-oxa-6-azaspiro[3.4]octan-6-yl)but-2-en-1-one] | 1.5 to 5 | < 0.2 | < 0.2
C=CC(=O)N1CCN(c2ccn3ncnc(Nc4ccc(Oc5ccc6c(c5)ncn6C)c(C)c4)c23)CC1 [Example 121, 1-(4-(4-((3-methyl-4-((1-methyl-1H-benzo[d]imidazol-5-yl)oxy)phenyl)amino)pyrrolo[2,1-f][1,2,4]triazin-5-yl)piperazin-1-yl)prop-2-en-1-one] | 0.5 to 1.5 | < 0.2 | < 0.2
Cc1cc(Nc2ncnn3ccc(C4CCN(C(=O)/C=C/CN5CCC6(COC6)C5)CC4)c23)ccc1Oc1ccc2c(c1)ncn2C [Example 129, (E)-1-(4-(4-((3-methyl-4-((1-methyl-1H-benzo[d]imidazol-5-yl)-oxy)phenyl)amino)-pyrrolo[2,1-f][1,2,4]triazin-5-yl)piperidin-1-yl)-4-(2-oxa-6-azaspiro[3.4]octan-6-yl)but-2-en-1-one] | 1.5 to 5 | < 0.2 | < 0.2
Cc1cc(Nc2ncnn3ccc(C4CCN(C(=O)/C=C/CN(C)C)CC4)c23)ccc1Oc1ccc2c(c1)ncn2C [Example 133, (E)-4-(dimethylamino)-1-(4-(4-((3-methyl-4-((1-methyl-1H-benzo[d]234midazole-5-yl)oxy)phenyl)amino)pyrrolo[2,1-f][1,2,4]triazin-5-yl)piperidin-1-yl)but-2-en-1-one] | 1.5 to 5 | < 0.2 | < 0.2
Cc1cc(Nc2ncnn3ccc(C4CN(C(=O)/C=C/CN(C)C)C4)c23)ccc1Oc1ccn2cnnc2c1 [Example 134, (E)-1-(3-(4-((4-([1,2,4]triazolo[4,3-a]pyridin-7-yloxy)-3-methylphenyl)amino)pyrrolo[2,1-f][1,2,4]triazin-5-yl)azetidin-1-yl)-4-(dimethylamino)but-2-en-1-one] | 1.5 to 5 | 1.5 to 5 | 0.2 to 0.5
C=CC(=O)N1C[C@H]2C[C@@H]1C[C@@H]2c1ccn2ncnc(Nc3ccc(Oc4ccn5ncnc5c4)c(C)c3)c12 [Example 141, 1-[(1S,4S,5S)-5-{4-[(3-methyl-4-{[1,2,4]triazolo[1,5-a]pyridin-7-yloxy}phenyl)amino]pyrrolo[2,1-f][1,2,4]triazin-5-yl}-2-azabicyclo[2.2.1]heptan-2-yl]prop-2-en-1-one] | 1.5 to 5 | 0.5 to 1.5 | 0.2 to 0.5
